This note sets out measurements from patent US6693167B1, “Peptide-based gemini compounds” (SmithKline Beecham p.l.c., priority 1997, dated 2004).

Type in all cases: cell-based
For one assay, the system named is HEK293 cells. Briefly: Transfection of luciferase plasmid into HEK293 cells. The procedure: All tissue culture reagents were obtained from Life Technologies Inc. HEK 293 cells were seeded at 2-3×10^5 cells per well in Nunc six-well culture plates, 24 hours prior to transfection. The cells were seeded in 2 mls Dulbeccos Modified Eagle medium containing Earles salts and supplemented with 10% v/v foetal bovine serum (=complete medium). The cells were grown at 37° C. in 5% CO2 in a humidified atmosphere. 6 ug DNA (“luciferase control plasmid” from Promega Corp.) were dissolved in 100 ul serum free medium (OPTI-MEM®). The peptide-based gemini compounds were made up at 1 mg/ml in tissue culture grade water and then diluted in OPTI-MEM® to the appropriate concentration to a final volume of […]. The DNA and gemini solutions were mixed (to a total volume of 200 ul; final concentrations of 5, 25, 50, 100, 150, 200, 250 and 300 ug/ml) and left at room temperature for 15 minutes. The DNA/gemini mix was placed onto the cells in each well and left in contact for 18-20 hours. The cells were then washed twice with phophate buffered saline prior to 1 ml of fresh complete medium being added. Cells were incubated for a further 24 hours prior to lysis and luciferase activity assayed.
All luciferase activity assays were performed using the Canberra Packard (Berkshire, UK) Luclite kit according to the manufacturer's instructions with the exception that the cells in each well were resuspended in 1 ml lysis buffer and 10 ul aliquots mixed with 100 ul of the luciferase substrate. The reaction mix was left for a 15 minutes adaptation period in the dark before counting for 5 minutes in a Top Count scintillation counter. Luciferase activity is measured as counts per second (CPS) from the scintillation counter. Four independent counts were taken per well.
Control transfections were set up with no DNA, CaPO4, an anionic gemini compound (1) and the commercially available lipofection reagents LipofectAmine™ and Lipotaxi™ at the manufacturers recommended concentrations (10, 25, 50, 75, 125 ug/ml and 175, 250, 325, 400 and 500 ug/ml respectively).

The test system of assay [1] is CHO-K1 cells. Briefly: Transfection of luciferase plasmid into CHO-K1 cells in combination with supplements (DOPE, PLUS). The procedure:
The transfection ability of the gemini compounds could be further enhanced by the addition of a neutral carrier, for example, dioleyl phosphatidylethanolamine (DOPE) (Farhood, H., et al (1985) Biochim. Biophys. Acta 1235 289) or a complexing reagent, for example, PLUS compound (Life Technologies Inc.). […] Transfection mediated by compound 55 with DOPE in a 2:1 ratio and the addition of 11.6 ul of PLUS compound lead to a mean count of 6.5×10^5 cps representing a 12-fold increase of luciferase activity in comparison to compound 55 alone. Incubation of the PLUS compound with the DNA and combination with compound 55 alone also lead to a 4-fold increase.

For assay [2], the system named is CHO-K1 cells. In words: Transfection of luciferase plasmid into CHO-K1 cells. The procedure:
CHO-K1 cells (ATCC: CRL-9618) were seeded into T25-culture flasks (Corning-Costar Buckinghamshire, UK), at 7×10^5 cells per flask, 24 hours prior to transfection. The CHO-K1 cells were seeded in 5 ml MEM alpha medium with ribonucleosides and deoxyribonucleosides and supplemented with 1×L-glutamine and 10% v/v foetal bovine serum (complete medium). The cells were grown at 37° C. in 5% CO2 in a humidified atmosphere.
For transfection, 5 ug DNA (luciferase control plasmid) was incubated with the gemini compounds in water (final volume 400 μl). The peptide-based gemini compounds were made up at 1 mg ml^−1 in tissue culture grade water and then diluted to the appropriate concentration to a total volume of 200 μl. Following a 30 minute room temperature incubation, 2.6 ml OPTI-MEM® medium was added and the solution placed on the cells. Following an overnight incubation at 37° C., the transfection solution was replaced with complete medium and the cells incubated at 37° C. 24 hours post transfection the cells were detached from the flask and seeded into 96-well plates at a density of 0.5×10^5 cells per well and incubated for a further 24 hours at 37° C. Luciferase reporter gene assays were performed according to the manufacturers instructions (Roche Diagnostics, Mannheim, Germany) approximately 48 hours post transfection. The plates were left for a 15 minutes adaption period in the dark before counting for 60 seconds in a TopCount NXT counter (Canberra Packard). An average of eight wells were counted per transfection.
Control transfections were set up with no DNA, an anionic gemini compound and the commercially available reagent LipofectAmine PLUS™.

Where [3] appears, read: compound 55 with DOPE 2:1 plus 11.6 ul PLUS compound.

The structures appear in SMILES notation.

Regarding `CCCCCCCCCCCCNC(=O)C(CO)NC(=O)C(CSCCSCC(NC(=O)C(N)CCCCNC(=O)C(N)CCCCN)C(=O)NC(CO)C(=O)NCCCCCCCCCCCC)NC(=O)C(N)CCCCNC(=O)C(N)CCCCN.Cl.Cl.Cl.Cl` (stereo not shown) [Compound 55], the “Efficiency in facilitating transfection of the luciferase plasmid” value in the assay with HEK293 cells (at concentrations above 150 ug/ml) and in the assay on CHO-K1 cells [2] was “very efficient” each time. Moreover, the “Most effective (peak) concentration for transfection” value with HEK293 cells (luciferase control plasmid) came to 300 µg/mL; with CHO-K1 cells [2] (luciferase control plasmid), 30 µM. For the same molecule, the “Luciferase activity, mean count at peak efficiency” value in the assay with HEK293 cells (luciferase control plasmid, at the agent's most effective concentration, mean of 4 independent counts) is given as “about 45,000 cps”. Moreover, the “Increase of luciferase activity” value in the assay on CHO-K1 cells [1] (PLUS compound incubated with the DNA, combined with compound 55 alone (no DOPE)) worked out at 4 fold; with CHO-K1 cells [1] (compound 55 and DOPE at 2:1 ratio) it was 9 fold. Also, the “Increase of luciferase activity in comparison to compound 55 alone” value in the assay with CHO-K1 cells [1] (setting [3]) was 12 fold. Besides, the “Luciferase activity, mean count” value in the assay with CHO-K1 cells [1] (setting [3]) is 6.5×10^5 cps. Moreover, the “Luciferase activity, mean count at most effective concentration” value in the assay on CHO-K1 cells [2] (5 ug luciferase control plasmid, mean of 8 wells) was “about 2.4×10^5 cps”.
